Assay results from PubChem BioAssay AID1963971 (Molecular Pharmacology Branch, DTP, NCI, 2024).

Test system: 953936-095-R-J2-PDC spheroids with HUVEC/MSC, viability
Assay: Anticancer human tumor 953936-095-R-J2-PDC patient-derived cervical squamous cell carcinoma cell line growth inhibition [PI3K]
Details: for IC50: curve of first compound; for viability, T/C: stronger effect = lower value
Method in brief: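 Tumor cells grown as multi-cell spheroids with HUVEC endothelial cells and MSC fibroblast-like stroma were treated with targeted agents combined with inavolisib, alpelisib, duvelisib or copanlisib. Doses fell in half-log steps from near clinical Cmax, else from 10 microM. Viability was measured.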

[1] = second compound 0.00316 µM, first compound 0.0316 µM
[2] = second compound 0.00316 µM, first compound 0.1 µM
[3] = second compound 0.00316 µM, first compound 0.316 µM
[4] = second compound 0.00316 µM, first compound 1 µM
[5] = second compound 0.00316 µM, first compound 3.16 µM
[6] = second compound 0.00316 µM, first compound 10 µM
[7] = second compound 0.01 µM, first compound 0.0316 µM
[8] = second compound 0.01 µM, first compound 0.1 µM
[9] = second compound 0.01 µM, first compound 0.316 µM
[10] = second compound 0.01 µM, first compound 1 µM
[11] = second compound 0.01 µM, first compound 3.16 µM
[12] = second compound 0.01 µM, first compound 10 µM
[13] = second compound 0.0316 µM, first compound 0.0316 µM
[14] = second compound 0.0316 µM, first compound 0.1 µM
[15] = second compound 0.0316 µM, first compound 0.316 µM
[16] = second compound 0.0316 µM, first compound 1 µM
[17] = second compound 0.0316 µM, first compound 3.16 µM
[18] = second compound 0.0316 µM, first compound 10 µM
[19] = second compound 0.1 µM, first compound 0.0316 µM
[20] = second compound 0.1 µM, first compound 0.1 µM
[21] = second compound 0.1 µM, first compound 0.316 µM
[22] = second compound 0.1 µM, first compound 1 µM
[23] = second compound 0.1 µM, first compound 3.16 µM
[24] = second compound 0.1 µM, first compound 10 µM
[25] = second compound 0.316 µM, first compound 0.0316 µM
[26] = second compound 0.316 µM, first compound 0.1 µM
[27] = second compound 0.316 µM, first compound 0.316 µM
[28] = second compound 0.316 µM, first compound 1 µM
[29] = second compound 0.316 µM, first compound 3.16 µM
[30] = second compound 0.316 µM, first compound 10 µM
[31] = second compound 1 µM, first compound 0.0316 µM
[32] = second compound 1 µM, first compound 0.1 µM
[33] = second compound 1 µM, first compound 0.316 µM
[34] = second compound 1 µM, first compound 1 µM
[35] = second compound 1 µM, first compound 3.16 µM
[36] = second compound 1 µM, first compound 10 µM
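Also: spheroids exposed to compounds for seven days before read-out.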

Work on `C#Cc1c(F)ccc2cc(O)cc(-c3ncc4c(N5CC6CCC(C5)N6)nc(OCC56CCCN5CC(F)C6)nc4c3F)c12` (stereo unspecified) + CC(Nc1ccc2c(c1)OCCn1cc(N3C(=O)OCC3C(F)F)nc1-2)C(N)=O yielded an IC50 (second compound 0.00316 µM) of over 10 µM, an IC50 (second compound 0.01 µM) of over 10 µM and an IC50 (second compound 0.0316 µM) of 7.1 µM. The IC50 (second compound 0.1 µM) was 1.02 µM, the IC50 (second compound 0.316 µM) was under 0.0316 µM and the IC50 (second compound 1 µM) was under 0.0316 µM. It also gave a viability, T/C [1] of 95.9%, a viability, T/C [2] of 110% and a viability, T/C [3] of 89.5%. It also gave a viability, T/C [4] of 87.6%, a viability, T/C [5] of 71.6% and a viability, T/C [6] of 76.3%. It also gave a viability, T/C [7] of 92.5%, a viability, T/C [8] of 95% and a viability, T/C [9] of 80.9%. For the same compound, the viability, T/C [10] was 88.2%, the viability, T/C [11] was 64.8% and the viability, T/C [12] was 61%. It also gave a viability, T/C [13] of 78.3%, a viability, T/C [14] of 81.6% and a viability, T/C [15] of 76.1%. It also gave a viability, T/C [16] of 70%, a viability, T/C [17] of 61.5% and a viability, T/C [18] of 45.2%. It also gave a viability, T/C [19] of 60.1%, a viability, T/C [20] of 64.7% and a viability, T/C [21] of 57.4%. It also gave a viability, T/C [22] of 48.3%, a viability, T/C [23] of 41.2% and a viability, T/C [24] of 30%. It also gave a viability, T/C [25] of 38.3%, a viability, T/C [26] of 34.6% and a viability, T/C [27] of 36.1%. The viability, T/C [28] was 28.2%, the viability, T/C [29] was 22.6% and the viability, T/C [30] was 17.3%. It also gave a viability, T/C [31] of 24%, a viability, T/C [32] of 21.9% and a viability, T/C [33] of 21.6%. For the same compound, the viability, T/C [34] was 16%, the viability, T/C [35] was 12.4% and the viability, T/C [36] was 9.54%.
Compound `C=CC(=O)N1CCN(c2nc(=O)n(-c3c(C)ccnc3C(C)C)c3nc(-c4c(O)cccc4F)c(F)cc23)C(C)C1` (stereo unspecified) + CC(Nc1ccc2c(c1)OCCn1cc(N3C(=O)OCC3C(F)F)nc1-2)C(N)=O has an IC50 (second compound 0.00316 µM) of over 10 µM, an IC50 (second compound 0.01 µM) of over 10 µM and an IC50 (second compound 0.0316 µM) of over 10 µM. It also gave an IC50 (second compound 0.1 µM) of over 10 µM, an IC50 (second compound 0.316 µM) of under 0.0316 µM and an IC50 (second compound 1 µM) of under 0.0316 µM. It also gave a viability, T/C [1] of 94.8%, a viability, T/C [2] of 94.5% and a viability, T/C [3] of 99.9%. It also gave a viability, T/C [4] of 110%, a viability, T/C [5] of 114% and a viability, T/C [6] of 112%. It also gave a viability, T/C [7] of 86.8%, a viability, T/C [8] of 91.3% and a viability, T/C [9] of 101%. For the same compound, the viability, T/C [10] was 101%, the viability, T/C [11] was 116% and the viability, T/C [12] was 108%. The viability, T/C [13] was 80%, the viability, T/C [14] was 82.5% and the viability, T/C [15] was 89.5%. The viability, T/C [16] was 98.6%, the viability, T/C [17] was 90.4% and the viability, T/C [18] was 94.1%. The viability, T/C [19] was 60.2%, the viability, T/C [20] was 56.2% and the viability, T/C [21] was 61.4%. For the same compound, the viability, T/C [22] was 72.3%, the viability, T/C [23] was 77.7% and the viability, T/C [24] was 69.2%. The viability, T/C [25] was 37.1%, the viability, T/C [26] was 35.3% and the viability, T/C [27] was 34.9%. For the same compound, the viability, T/C [28] was 42%, the viability, T/C [29] was 39.6% and the viability, T/C [30] was 35.9%. For the same compound, the viability, T/C [31] was 21.4%, the viability, T/C [32] was 25.3% and the viability, T/C [33] was 23.2%. The viability, T/C [34] was 24.5%, the viability, T/C [35] was 22.5% and the viability, T/C [36] was 19.6%.
For `CC(Cn1ccc(-c2ccc(C#N)c(Cl)c2)n1)NC(=O)c1cc(C(C)O)[nH]n1` (stereo unspecified) + CC(Nc1ccc2c(c1)OCCn1cc(N3C(=O)OCC3C(F)F)nc1-2)C(N)=O, the IC50 (second compound 0.00316 µM) was over 10 µM, the IC50 (second compound 0.01 µM) was over 10 µM and the IC50 (second compound 0.0316 µM) was over 10 µM. It also gave an IC50 (second compound 0.1 µM) of over 10 µM, an IC50 (second compound 0.316 µM) of under 0.0316 µM and an IC50 (second compound 1 µM) of under 0.0316 µM. For the same compound, the viability, T/C [1] was 86.4%, the viability, T/C [2] was 92.7% and the viability, T/C [3] was 94%. It also gave a viability, T/C [4] of 97.8%, a viability, T/C [5] of 105% and a viability, T/C [6] of 107%. It also gave a viability, T/C [7] of 87.7%, a viability, T/C [8] of 90.9% and a viability, T/C [9] of 92.1%. It also gave a viability, T/C [10] of 91.5%, a viability, T/C [11] of 86.6% and a viability, T/C [12] of 95.1%. It also gave a viability, T/C [13] of 84.3%, a viability, T/C [14] of 76.1% and a viability, T/C [15] of 74.7%. It also gave a viability, T/C [16] of 84.5%, a viability, T/C [17] of 81.7% and a viability, T/C [18] of 82.6%. For the same compound, the viability, T/C [19] was 58.1%, the viability, T/C [20] was 56.3% and the viability, T/C [21] was 54.6%. For the same compound, the viability, T/C [22] was 54.4%, the viability, T/C [23] was 61.3% and the viability, T/C [24] was 56.5%. It also gave a viability, T/C [25] of 34.3%, a viability, T/C [26] of 32.5% and a viability, T/C [27] of 32.6%. The viability, T/C [28] was 36.2%, the viability, T/C [29] was 38.4% and the viability, T/C [30] was 34.6%. For the same compound, the viability, T/C [31] was 21.8%, the viability, T/C [32] was 21.7% and the viability, T/C [33] was 20.9%. The viability, T/C [34] was 26.6%, the viability, T/C [35] was 22.6% and the viability, T/C [36] was 24.1%.
